Test results from article PMC6669322, “Small Molecule Binding to Alzheimer Risk Factor CD33 Promotes Aβ Phagocytosis” (iScience, 2019).
Where “and” joins values, the source holds several entries; their conditions need not be identical. Equal entries are not always repeated.

Assays:
CD33 wild-type = target: T1, CD33 wild-type (Homo sapiens, UniProt P20138); experiment: surface plasmon resonance (SPR), CD33 wild-type V-set domain; format: binding; conditions: P22 as analyte, immobilized CD33 wild-type; 1:1 steady state model
T1 construct: DNA encoding D18 to H143 of human CD33; made in house
Experimental: (§1) We next performed surface plasmon resonance (SPR) measurements on P22 binding to CD33 wild-type, and selected mutants, to obtain detailed kinetic data (see Transparent Methods). The CD33 V-set domain has a free cysteine residue (C36), which caused anomalous results in some of our SPR experiments due to disulfide-linked oligomers forming in solution.
(§2) Figure 3 P22 Binding to CD33 Wild-Type and Mutants (A) An example of affinity analysis for 1–243 μM (3-fold dilutions) of P22 binding to immobilized CD33^C36S. Data obtained in duplicate using single-cycle analysis and fit to a steady-state binding model to determine the equilibrium binding constant. (B) An example of affinity analysis of P22 binding to immobilized CD33 wild-type (WT) as per example in (A). (C) Sensorgram data for 0.01–9 μM (3-fold dilutions) of CD33^C36S binding to immobilized P22. Data obtained in triplicate using single concentration cycles and fit to a 1:1 binding model for kinetic analysis. (D) Sensorgram data for 0.03–9 μM (3-fold dilutions) CD33 WT binding to immobilized P22. Data obtained in triplicate using single concentration cycles and fit to a bivalent analyte model for kinetic analysis. Measurements in triplicate showing mean ± SD. […] Data presented are representative of three independent experiments performed in quadruplicate for each compound. […]

CD33^C36S = target: T2, CD33^C36S (Homo sapiens, UniProt P20138, C36S); experiment: surface plasmon resonance (SPR), CD33^C36S V-set domain; format: binding; conditions: P22 as analyte, captured CD33^C36S; 1:1 steady state model
T2 construct: DNA encoding D18 to H143 of human CD33; octa-histidine tag with TEV protease cleavage site (N); made in house
Experimental: as §1, §2

CD33 = system: CD33; design: method as in Rillahan et al., 2014; conditions: estimated, flow cytometry assay; ref Rillahan et al., 2014; cited from earlier work

T2 sequence (P20138 18-143 C36S): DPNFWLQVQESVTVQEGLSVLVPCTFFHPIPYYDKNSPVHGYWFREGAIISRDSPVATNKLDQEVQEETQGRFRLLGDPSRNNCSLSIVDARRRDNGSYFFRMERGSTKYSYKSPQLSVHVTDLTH
T1 sequence (P20138 18-143): as the sequence (P20138 18-143 C36S) above, with S19C counted along it

Cc1cc(C(=O)NC[C@@H](O)[C@@H](O)[C@@H]2O[C@@](OC[C@H]3O[C@@H](O[C@H]4[C@H](O)[C@@H](O)[C@H](OCCN)O[C@@H]4CO)[C@H](O)[C@@H](O)[C@H]3O)(C(=O)O)C[C@H](O)[C@H]2NC(=O)Cn2cc(C3CCCCC3)nn2)cc(C)c1O [P22, β-D-Glucopyranoside, 2-aminoethyl O-[N-[2-(4-cyclohexyl-1H-1,2,3-triazol-1-yl)acetyl]-9-deoxy-9-[(4-hydroxy-3,5-dimethylbenzoyl)amino]-α-neuraminosyl] (2→6)-O-β-D-galactopyranosyl-(1→4)-]
Kd (CD33 wild-type): 118 ± 41 µM
Kd (CD33^C36S): 95 µM and 95.2 µM
IC50 (CD33): 11 µM
